From PubChem BioAssay AID328 (DTP/NCI, 2004)
“And” between values parts separate entries of the source, which are not always exact repeats. Equal values may be shown once. Inconclusive results and toxic doses are left out.

System: BDF1 mice, P388 leukemia ip, median survival T/C
Experiment: NCI In Vivo Anticancer Drug Screen. Data for tumor model P388 Leukemia (intraperitoneal) in B6D2F1 (BDF1) mice
Settings: endpoint: median survival time, higher = longer survival
In short: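 Each value expresses how treatment altered survival: treated-mouse outcome over vehicle-mouse outcome, both groups bearing the transplanted tumour.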

[1] = dose: 100.0 mg/kg/injection, schedule: Q04DX003 (ip), vehicle: saline with Tween-80
[2] = dose: 200.0 mg/kg/injection, schedule: Q04DX003 (ip), vehicle: saline with Tween-80
[3] = dose: 400.0 mg/kg/injection, schedule: Q04DX003 (ip), vehicle: saline with Tween-80
[4] = dose: 6.25 mg/kg/injection, schedule: Q01DX009 (ip), vehicle: saline
[5] = dose: 12.5 mg/kg/injection, schedule: Q01DX009 (ip), vehicle: saline
[6] = dose: 25.0 mg/kg/injection, schedule: Q01DX009 (ip), vehicle: saline
[7] = dose: 50.0 mg/kg/injection, schedule: Q01DX009 (ip), vehicle: saline with Tween-80
[8] = dose: 100.0 mg/kg/injection, schedule: Q01DX009 (ip), vehicle: saline with Tween-80
[9] = dose: 200.0 mg/kg/injection, schedule: Q01DX009 (ip), vehicle: saline with Tween-80
[10] = dose: 100.0 mg/kg/injection, schedule: Q04DX003 (ip), vehicle: saline
[11] = dose: 200.0 mg/kg/injection, schedule: Q04DX003 (ip), vehicle: saline
[12] = dose: 100.0 mg/kg/injection, schedule: Q04DX003 (ip), vehicle: Klucel (hydroxypropylcellulose) (HPC)
[13] = dose: 200.0 mg/kg/injection, schedule: Q04DX003 (ip), vehicle: Klucel (hydroxypropylcellulose) (HPC)
[14] = dose: 25.0 mg/kg/injection, schedule: Q01DX009 (ip), vehicle: Klucel (hydroxypropylcellulose) (HPC)
[15] = dose: 50.0 mg/kg/injection, schedule: Q01DX009 (ip), vehicle: Klucel (hydroxypropylcellulose) (HPC)
[16] = dose: 100.0 mg/kg/injection, schedule: Q01DX009 (ip), vehicle: Klucel (hydroxypropylcellulose) (HPC)

`CC(=O)CC(=O)Nc1ccc([N+](=O)[O-])cc1` was tested, and the T/C (dose: 50.0 mg/kg/injection, schedule: Q04DX003 (ip), vehicle: saline with Tween-80) was 109 % of control, the T/C [1] was 109 % of control and the T/C [2] was 95 % of control. For the same molecule, the T/C [3] was 100 % of control.
In the case of `O=c1cc2cccccc-2cc1O`, the T/C (dose: 10.0 mg/kg/injection, schedule: Q01DX009 (ip), vehicle: saline with Tween-80) is reported as 104 % of control, the T/C (dose: 20.0 mg/kg/injection, schedule: Q01DX009 (ip), vehicle: saline with Tween-80) is reported as 113 % of control and the T/C (dose: 40.0 mg/kg/injection, schedule: Q01DX009 (ip), vehicle: saline with Tween-80) is reported as 113 % of control.
`NC1CC[N-]CC1.NC1CC[N-]CC1.[Cl][Pt+2]([Cl])([Cl])[Cl]` was tested, and the T/C (dose: 3.12 mg/kg/injection, schedule: Q01DX009 (ip), vehicle: saline) was 109 % of control, the T/C [4] was 100 % of control and 118 % of control and the T/C [5] was 108 % of control. For the same molecule, the T/C [6] was 120 % of control and the T/C (dose: 50.0 mg/kg/injection, schedule: Q01DX009 (ip), vehicle: saline) was 111 % of control.
`O=c1ccc2cc(-c3ccncc3)cnc2[nH]1` was tested, and the T/C (dose: 100.0 mg/kg/injection, schedule: Q04DX002 (ip), vehicle: saline with Tween-80) was 108 % of control.
In the case of `Oc1c(Cl)cc(Cl)cc1C=Nc1cc(C(F)(F)F)ccc1Cl`, the T/C [7] is reported as 87 % of control, the T/C [8] is reported as 89 % of control and the T/C [9] is reported as 99 % of control.
With `CC(Cc1cccs1)N=Cc1cc(Br)ccc1O` (stereo not drawn) the T/C (dose: 100.0 mg/kg/injection, schedule: Q01DX001 (ip), vehicle: saline with Tween-80) was 100 % of control, the T/C (dose: 200.0 mg/kg/injection, schedule: Q01DX001 (ip), vehicle: saline with Tween-80) was 111 % of control and the T/C (dose: 400.0 mg/kg/injection, schedule: Q01DX001 (ip), vehicle: saline with Tween-80) was 109 % of control.
`Cc1cc(C)c(NC(=O)N(CCCl)N=O)cc1C` was tested, and the T/C (dose: 20.0 mg/kg/injection, schedule: Q01DX009 (ip), vehicle: other) was 110 % of control, the T/C (dose: 45.0 mg/kg/injection, schedule: Q01DX009 (ip), vehicle: other) was 100 % of control and the T/C (dose: 50.0 mg/kg/injection, schedule: Q01DX009 (ip), vehicle: other) was 122 % of control. For the same molecule, the T/C [7] was 105 % of control, the T/C (dose: 50.0 mg/kg/injection, schedule: Q04DX003 (ip), vehicle: saline) was 108 % of control and the T/C (dose: 65.0 mg/kg/injection, schedule: Q01DX009 (ip), vehicle: other) was 150 % of control. The T/C [8] was 105 % of control, the T/C [10] was 108 % of control and the T/C (dose: 200.0 mg/kg/injection, schedule: Q01DX009 (ip), vehicle: other) was 122 % of control. The T/C [9] was 105 % of control and the T/C [11] was 95 % of control.
With `O=C/C=C/c1ccc([N+](=O)[O-])cc1` the T/C (dose: 25.0 mg/kg/injection, schedule: Q01DX009 (ip), vehicle: saline with Tween-80) was 104 % of control, the T/C [7] was 108 % of control and the T/C [8] was 91 % of control.
`COc1cc(N(CCCl)CCCl)c(OC)cc1/C=N\Nc1nncn1N` was tested, and the T/C (dose: 2.2 mg/kg/injection, schedule: Q01DX009 (ip), vehicle: saline) was 168 % of control, the T/C (dose: 3.3 mg/kg/injection, schedule: Q01DX009 (ip), vehicle: saline) was 163 % of control and the T/C (dose: 5.0 mg/kg/injection, schedule: Q01DX009 (ip), vehicle: saline) was 186 % of control. For the same molecule, the T/C (dose: 5.0 mg/kg/injection, schedule: Q04DX003 (ip), vehicle: saline) was 179 % of control, the T/C [4] was 172 % of control and the T/C (dose: 7.5 mg/kg/injection, schedule: Q01DX009 (ip), vehicle: saline) was 240 % of control. For the same molecule, the T/C (dose: 10.0 mg/kg/injection, schedule: Q04DX003 (ip), vehicle: saline) was 212 % of control, the T/C [5] was 90 % of control and the T/C (dose: 20.0 mg/kg/injection, schedule: Q04DX003 (ip), vehicle: saline) was 108 % of control. The T/C [6] was 86 % of control and the T/C (dose: 25.0 mg/kg/injection, schedule: Q04DX003 (ip), vehicle: saline sonified) was 177 % of control.
For `CCN(c1ccccc1)c1ccc(C=O)cc1`, the T/C [12] was 94 % of control and the T/C [13] was 100 % of control.
For `ClCCn1cnc2c(SCc3ccccc3)ncnc21`, the T/C [1] was 100 % of control, the T/C [2] was 100 % of control and the T/C [3] was 100 % of control.
For `CCCCCCCC(=O)OCC(=O)[C@]1(O)Cc2c(O)c3c(c(O)c2[C@@H](OC2CC(N)C(O)C(C)O2)C1)C(=O)c1c(OC)cccc1C3=O` (stereo partly drawn), the T/C (dose: 0.5 mg/kg/injection, schedule: Q01DX009 (ip), vehicle: water) was 204 % of control, the T/C (dose: 1.0 mg/kg/injection, schedule: Q01DX009 (ip), vehicle: water) was 254 % of control and 190 % of control and the T/C (dose: 1.0 mg/kg/injection, schedule: Q04DX003 (ip), vehicle: water) was 207 % of control. The T/C (dose: 2.0 mg/kg/injection, schedule: Q01DX009 (ip), vehicle: water) was 231 % of control and 311 % of control, the T/C (dose: 2.0 mg/kg/injection, schedule: Q04DX003 (ip), vehicle: water) was 264 % of control and the T/C (dose: 2.5 mg/kg/injection, schedule: Q04DX003 (ip), vehicle: water) was 116 % of control. The T/C (dose: 2.88 mg/kg/injection, schedule: Q04DX003 (ip), vehicle: water) was 215 % of control, the T/C (dose: 4.0 mg/kg/injection, schedule: Q01DX009 (ip), vehicle: water) was 90 % of control and the T/C (dose: 4.0 mg/kg/injection, schedule: Q04DX003 (ip), vehicle: water) was 271 % of control. The T/C (dose: 4.8 mg/kg/injection, schedule: Q04DX003 (ip), vehicle: water) was 339 % of control, the T/C (dose: 10.0 mg/kg/injection, schedule: Q04DX003 (ip), vehicle: water) was 174 % of control and the T/C (dose: 40.0 mg/kg/injection, schedule: Q04DX003 (ip), vehicle: water) was 100 % of control.
With `CC[C@H]1CN2CCc3cc(OC)c(OC)cc3[C@@H]2C[C@@H]1C[C@H]1NCCc2cc(O)c(OC)cc21` the T/C (dose: 0.25 mg/kg/injection, schedule: Q01DX010 (ip), vehicle: saline) was 159 % of control, the T/C (dose: 0.5 mg/kg/injection, schedule: Q01DX010 (ip), vehicle: saline) was 150 % of control and the T/C (dose: 2.0 mg/kg/injection, schedule: Q01DX010 (ip), vehicle: saline) was 150 % of control and 190 % of control. For the same molecule, the T/C (dose: 8.0 mg/kg/injection, schedule: Q01DX010 (ip), vehicle: saline) was 95 % of control.
With `CC(C(=O)c1ccc(Cl)cc1)C(O)(C(F)(F)F)C(F)(F)F` (stereo not drawn) the T/C (dose: 100.0 mg/kg/injection, schedule: Q01DX001 (ip), vehicle: Klucel (hydroxypropylcellulose) (HPC)) was 100 % of control, the T/C (dose: 200.0 mg/kg/injection, schedule: Q01DX001 (ip), vehicle: Klucel (hydroxypropylcellulose) (HPC)) was 113 % of control and the T/C (dose: 400.0 mg/kg/injection, schedule: Q01DX001 (ip), vehicle: Klucel (hydroxypropylcellulose) (HPC)) was 113 % of control.
For `C[C@]12CCC(=O)C=C1CC[C@H]1[C@@H]3CC[C@](O)(C(=O)CO)[C@@]3(C)C[C@H](O)[C@@]12F`, the T/C (dose: 12.5 mg/kg/injection, schedule: Q01DX009 (ip), vehicle: Klucel (hydroxypropylcellulose) (HPC)) was 104 % of control, the T/C [14] was 109 % of control and the T/C [15] was 109 % of control. The T/C [16] was 90 % of control, the T/C [12] was 120 % of control and the T/C [13] was 115 % of control. For the same molecule, the T/C (dose: 400.0 mg/kg/injection, schedule: Q04DX003 (ip), vehicle: Klucel (hydroxypropylcellulose) (HPC)) was 90 % of control.
In the case of `O=S(=O)(O)c1ccc(O)cc1`, the T/C (dose: 100.0 mg/kg/injection, schedule: Q01DX009 (ip), vehicle: saline) is reported as 92 % of control, the T/C [10] is reported as 105 % of control and the T/C (dose: 200.0 mg/kg/injection, schedule: Q01DX009 (ip), vehicle: saline) is reported as 88 % of control. For the same molecule, the T/C [11] was 115 % of control and the T/C (dose: 400.0 mg/kg/injection, schedule: Q04DX003 (ip), vehicle: saline) was 110 % of control.
For `CCOC(=O)N(C)c1ccccc1`, the T/C [14] was 95 % of control, the T/C (dose: 25.0 mg/kg/injection, schedule: Q04DX003 (ip), vehicle: Klucel (hydroxypropylcellulose) (HPC)) was 92 % of control and the T/C [15] was 91 % of control. The T/C (dose: 50.0 mg/kg/injection, schedule: Q04DX003 (ip), vehicle: Klucel (hydroxypropylcellulose) (HPC)) was 96 % of control, the T/C [16] was 87 % of control and the T/C [12] was 92 % of control.
In the case of `CC1(c2ccc(Cl)cc2)NC(=O)NC1=O` (stereo not drawn), the T/C (dose: 200.0 mg/kg/injection, schedule: Q04DX003 (ip), vehicle: saline sonified) is reported as 91 % of control and the T/C (dose: 400.0 mg/kg/injection, schedule: Q04DX003 (ip), vehicle: saline sonified) is reported as 87 % of control.
